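Values below derive from 48-hour exposures of cells grown in 96-well plates, with endpoints linearly interpolated between the two concentrations bracketing the appropriate inhibition level. TGI: concentration producing complete growth inhibition.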
Legend:
Assay in all cases: NCI-60 cell line screen, 48 h
NCI-H23 lung = tested on: NCI-H23 lung
HOP-62 NSCLC = tested on: HOP-62 NSCLC
OVCAR-8 ovarian = tested on: OVCAR-8 ovarian
OVCAR-5 ovarian = tested on: OVCAR-5 ovarian
UACC-257 melanoma = tested on: UACC-257 melanoma
786-0 renal = tested on: 786-0 renal
HS 578T breast = tested on: HS 578T breast
NCI-H522 lung = tested on: NCI-H522 lung
SK-MEL-5 melanoma = tested on: SK-MEL-5 melanoma
ACHN renal = tested on: ACHN renal

| Structure (SMILES) | TGI (NCI-H23 lung) | TGI (HOP-62 NSCLC) | TGI (OVCAR-8 ovarian) | TGI (OVCAR-5 ovarian) | TGI (UACC-257 melanoma) | TGI (786-0 renal) | TGI (HS 578T breast) | TGI (NCI-H522 lung) | TGI (SK-MEL-5 melanoma) | TGI (ACHN renal) |
| --- | --- | --- | --- | --- | --- | --- | --- | --- | --- | --- |
| COc1cccc(-c2cc(=O)c3ccccc3o2)c1N | > 100 µM | > 100 µM | > 100 µM | > 100 µM | > 100 µM | > 100 µM | > 100 µM | > 100 µM | > 100 µM | > 100 µM |
| C[C@@]12[C@H]3CC[C@@H]1[C@H](O)C(=O)N2CC3 | > 100 µM | > 100 µM | > 100 µM | > 100 µM | > 100 µM | > 100 µM | > 100 µM | > 100 µM | > 100 µM | > 100 µM |
| COc1ccc(C2CC(c3c(O)ccc4ccccc34)=NN2c2ccc([N+](=O)[O-])cc2[N+](=O)[O-])cc1OC (stereo unspecified) | > 85.4 µM | > 71.7 µM | 27.3 µM | > 90.6 µM | > 93.9 µM | > 100 µM | > 89.7 µM | > 42.9 µM | 30.2 µM | 92.2 µM |
| CN(C)/N=N/c1nc2c(c(=O)n(C)c(=O)n2C)n1C |  | > 100 µM | > 100 µM | > 100 µM | > 100 µM | > 100 µM | > 100 µM | > 100 µM | > 100 µM | > 100 µM |
| Cc1ccc(C(=O)Nc2ccc(CP(=O)(O)O)cc2CP(=O)(O)O)cc1NC(=O)c1cccc(N)c1 | > 100 µM | > 100 µM | > 100 µM | > 100 µM | > 100 µM | > 100 µM | > 100 µM | > 100 µM | > 100 µM | > 100 µM |
| COCOC1/C=C/CCCC#C[C@H](C)C(=O)CC1 (stereo partly specified) | 19.4 µM | 34.8 µM | 38 µM | 20.1 µM | 17.8 µM | 13.5 µM | 46.4 µM | 18.1 µM | 21.7 µM | 27.8 µM |
| O=C(O)c1c2c(cc3c1CC1(Cc4ccccc4C1)C3)CCC2 | > 100 µM | > 100 µM | > 100 µM | > 100 µM | > 100 µM | > 100 µM | > 100 µM | > 100 µM | > 100 µM | > 100 µM |
| CCN(CC)CCc1c2c(nc3ccccc13)C(=O)c1cccnc1C2=O | 8.53 µM | 11.8 µM | > 100 µM | 25.4 µM | 2.91 µM | 9.56 µM | > 100 µM | 6.46 µM | 1.34 µM |  |
| C=C1CC(COc2cc(=O)oc3ccccc23)(c2ccccc2)OC1=O (stereo unspecified) | 4.92 µM | 22.9 µM | 4.87 µM | 21.4 µM | 6.65 µM | 2.96 µM | 27.5 µM | 3.88 µM | 3.35 µM | 4.54 µM |
| CCOP(=O)(OCC)/C(C#N)=C/c1cnc(-c2ccccc2)[nH]1 | > 100 µM | > 100 µM | > 100 µM | > 100 µM | > 100 µM | > 100 µM | > 100 µM | > 100 µM | > 100 µM | > 100 µM |
| Cc1c(-c2nc3ccccc3[nH]2)c(=O)n(-c2ccccc2)n1C | > 100 µM | > 100 µM | > 100 µM |  | > 100 µM | > 100 µM | > 100 µM | > 100 µM | > 100 µM | > 100 µM |
| COC(=O)C(/C(=N/NC(N)=O)C(=O)Nc1ccc(C)cc1)c1nc2ccc([N+](=O)[O-])cc2[nH]c1=O (stereo unspecified) |  | > 100 µM | > 100 µM | > 100 µM |  | > 100 µM | > 100 µM | > 100 µM | > 100 µM |  |
| Nc1cc(CO)cc(Nc2nc3ccc(Cl)cc3c3[nH]c4ccccc4c23)c1 | 40 µM | 27.6 µM | 18.5 µM | 17.6 µM | 23.2 µM | 6.83 µM | 36.5 µM | 12.7 µM |  | 15 µM |
| OCC1CCCCCCCCCCC12SCCCS2 (stereo unspecified) | > 100 µM | > 100 µM |  | > 100 µM |  | > 100 µM | > 100 µM | > 100 µM | > 100 µM | > 100 µM |
| S=C(N/N=C\C=N/NC(=S)N1CCCCC1)N1CCCCC1 | > 40.1 µM | > 21.1 µM | > 100 µM | > 100 µM | > 100 µM | > 31.6 µM | > 51.9 µM | > 100 µM | > 32.4 µM |  |
| COc1ccc(-c2cc(-c3ccco3)c(C#N)c(=S)n2C2OC(COC(C)=O)C(OC(C)=O)C(OC(C)=O)C2OC(C)=O)cc1 (stereo unspecified) |  | 8.88 µM | 13 µM | 30.9 µM |  | 10.6 µM | 21.1 µM | 18 µM | 22.8 µM | 19.4 µM |
| Cc1cc(N(CCC#N)CCC#N)ccc1/C=N/NC(=O)c1cc(Cl)ccc1O | > 100 µM | > 100 µM | > 100 µM | > 100 µM | > 100 µM | > 100 µM | > 100 µM | > 100 µM | > 100 µM |  |
| Nc1nc2cc3nc(N)c(N)nc3cc2nc1N | > 100 µM |  | > 100 µM | > 100 µM | > 100 µM | > 100 µM | > 100 µM | > 100 µM | > 100 µM | > 100 µM |
